# Results published in ChEMBL document CHEMBL4699578, “Next generation quorum sensing inhibitors: Accounts on structure activity relationship studies and biological activities” (Bioorg Med Chem, 2020).
# pIC50: −log10 of the molar value.
# Experiments:
# [1] = Inhibition of quorum sensing system in Staphylococcus aureus
# [2] = Inhibition of quorum sensing system in Pseudomonas aeruginosa
# [3] = test system: Escherichia coli; test: Inhibition of quorum sensing system in Escherichia coli MT102 at 250 uM measured after 15 hrs by fluorescence method relative to control
# [4] = test system: Pseudomonas aeruginosa; test: Inhibition of quorum sensing system in Pseudomonas aeruginosa assessed as reduction in biofilm formation at 250 uM incubated for 24 hrs by crystal violet staining based method relative to control
# [5] = Inhibition of quorum sensing system in Pseudomonas aeruginosa PAO1
# [6] = test system: Vibrio campbellii ATCC BAA-1116; test: Inhibition of quorum sensing system in Vibrio harveyi BB120 assessed as delay time for the onset of bioluminescence at 50 ug/ml measured every 10 mins after 5 min of double orbital stirring during 11 hrs 50 mins by luminescence method; settings: dose 50.0 µg/ml, time 710.0 min
# [7] = test system: Escherichia coli; test: Inhibition of quorum sensing system in Escherichia coli assessed as reduction in biofilm formation at 250 uM incubated for 24 hrs by crystal violet staining based method relative to control
# [8] = test system: Pseudomonas aeruginosa; test: Inhibition of quorum sensing system in Pseudomonas aeruginosa MH602 harboring lasB promoter measured at 250 uM every 30 mins over 22 hrs by fluorescence method relative to control; settings: time hrs >22
# [9] = Inhibition of quorum sensing system in Proteus mirabilis
# [10] = Inhibition of quorum sensing system in Escherichia coli O157:H7
# [11] = Inhibition of quorum sensing system in Burkholderia cepacia
# [12] = Inhibition of quorum sensing system in Chromobacterium violaceum CV026 assessed as reduction in violacein production incubated for 16 to 18 hrs by spot test method
# [13] = Antagonist activity at Vibrio fischeri quorum sensing system in presence of OHHL by bioluminescence method; set-up: species or system Aliivibrio fischeri
# [14] = test system: Pseudomonas aeruginosa; test: Antagonist activity at Pseudomonas aeruginosa PAO-JP2 LasR assessed as reduction in GFP production incubated for 6 hrs in presence of OdDHL by fluorescence method relative to control; set-up: scale not given: the % may be the effect or the level left; settings: filed as antagonist
# [15] = Antagonist activity at Pseudomonas aeruginosa PAO-JP2 LasR assessed as reduction in GFP production incubated for 6 hrs in presence of OdDHL by fluorescence method
# [16] = Inhibition of quorum sensing system in Stenotrophomonas maltophilia
# [17] = Inhibition of quorum sensing system in Pseudomonas aeruginosa PAO1 assessed as reduction in pyocyanin production incubated for 8 hrs
# [18] = Inhibition of quorum sensing system in Pseudomonas aeruginosa PAO1 assessed as reduction in […] incubated for 18 hrs by congo red staining based assay
# [19] = biological target: T1, Transcriptional activator protein LuxR (Aliivibrio fischeri, UniProt P12746); test: Antagonist activity at Vibrio fischeri luxR expressed in Escherichia coli NM522 in presence of 3-oxo-C6-HSL
# T1 sequence (P12746 whole entry): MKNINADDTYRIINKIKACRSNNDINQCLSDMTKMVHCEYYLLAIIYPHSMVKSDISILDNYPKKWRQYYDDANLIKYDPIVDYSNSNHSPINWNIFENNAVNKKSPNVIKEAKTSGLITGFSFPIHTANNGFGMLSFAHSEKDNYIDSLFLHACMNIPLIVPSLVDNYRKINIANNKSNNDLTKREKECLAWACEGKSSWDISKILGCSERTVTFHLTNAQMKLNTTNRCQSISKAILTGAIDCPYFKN
# [20] = Inhibition of LuxR in Escherichia coli Top10 assessed as reduction in GFP production using 3OC6HSL as substrate by fluorescence method
compound,measurement,setting,value
O=c1c(O)c(-c2ccc(O)cc2)oc2cc(O)cc(O)c12 [KAEMPFEROL],pIC50,[1],3.66
O=C(O)/C=C/c1ccccc1 [CINNAMIC ACID],pIC50,[2],2.77
C#CCNC(=O)C(=O)c1ccccc1NC(=O)CCl,inhibition,[3],71.5%
same,inhibition,[4],66.9%
O=C/C=C/c1ccccc1 [CINNAMALDEHYDE],pIC50,[5],2.23
COC1=CC(=O)C(O)=C(C[C@]2(C)[C@@H](C)CC[C@]3(C)OC(=O)CCC[C@@H]23)C1=O,TIME,[6],0.667 h
C#CCNC(=O)C(=O)c1cc(Cl)ccc1NC(=O)CCl,inhibition,[7],90.8%
same,inhibition,[3],72.1%
same,inhibition,[8],71.5%
Oc1ccc(/C=C/c2cc(O)cc(O)c2)cc1 [RESVERATROL],pIC50,[9],4.19
O=c1c(O)c(-c2ccc(O)c(O)c2)oc2cc(O)cc(O)c12 [QUERCETIN],pIC50,[10],4.70
Oc1cc(O)c2c(c1)O[C@H](c1ccc(O)c(O)c1)[C@@H](O)C2 [CIANIDANOL],pIC50,[5],2.40
C[C@H]1CC[C@]2(C)C(=O)CCC[C@H]2[C@]1(C)CC1=C(O)C(=O)CC1=O,TIME,[6],0.667 h
O=c1oc2c(O)c(O)cc3c(=O)oc4c(O)c(O)cc1c4c23 [ELLAGIC ACID],pIC50,[11],3.88
O=C(O)c1ccccc1O [SALICYLIC ACID],pIC50,[2],2.84
O=C(Nc1ccc(S(=O)(=O)N[C@H]2CCOC2=O)cc1)c1sccc1Cl,pIC50,[12],5.21
O=C(N[C@H]1CCOC1=O)SCc1ccc([N+](=O)[O-])cc1,pIC50,[13],4.64
CCCCCCCCCNC(=O)CC(=O)c1ccco1,Activity,[14],96%
same,pIC50,[15],5.92
CC1=CC(=O)C(C(C)C)=CC1=O [THYMOQUINONE],pIC50,[1],3.89
O=C(N[C@H]1CCOC1=O)OCc1ccc([N+](=O)[O-])cc1,pIC50,[13],4.66
COc1cc(/C=C/C(=O)CC(=O)/C=C/c2ccc(O)c(OC)c2)ccc1O [CURCUMIN],pIC50,[5],5.52
C=C1CCC[C@H]2[C@](C)(Cc3c(O)c(OC(C)=O)cc(OC)c3OC(C)=O)[C@@H](C)CC[C@]12C,TIME,[6],1 h
O=C(/C=C/c1ccc(O)c(O)c1)O[C@@H]1C[C@](O)(C(=O)O)C[C@@H](O)[C@H]1O [CHLOROGENIC ACID],pIC50,[16],4.66
O=C1C[C@@H](c2ccc(O)cc2)Oc2cc(O)cc(O)c21 [NARINGENIN],pIC50,[17],2.40
same,pIC50,[18],2.40
O=C1C(=O)N(C(=O)CCl)c2ccccc21,inhibition,[7],87.9%
O=C(OC[C@H]1O[C@@H](OC(=O)c2cc(O)c(O)c(OC(=O)c3cc(O)c(O)c(O)c3)c2)[C@H](OC(=O)c2cc(O)c(O)c(OC(=O)c3cc(O)c(O)c(O)c3)c2)[C@@H](OC(=O)c2cc(O)c(O)c(OC(=O)c3cc(O)c(O)c(O)c3)c2)[C@@H]1OC(=O)c1cc(O)c(O)c(OC(=O)c2cc(O)c(O)c(O)c2)c1)c1cc(O)c(O)c(OC(=O)c2cc(O)c(O)c(O)c2)c1 [TANNIC ACID],pIC50,[1],4.70
C#CCNC(=O)C(=O)c1cc(Br)ccc1NC(=O)CCl,inhibition,[4],66.5%
O=C1c2c(O)cc(O)cc2O[C@H](c2ccc(O)c(O)c2)[C@H]1O [(+)-TAXIFOLIN],pIC50,[17],2.40
same,pIC50,[18],2.40
C#CCNC(=O)C(=O)c1cc(F)ccc1NC(=O)CCl,inhibition,[7],89.5%
same,inhibition,[3],73.5%
same,inhibition,[8],71.5%
O=C1C[C@@H](c2ccc(O)c(O)c2)Oc2cc(O)cc(O)c21 [ERIODICTYOL],pIC50,[17],2.40
same,pIC50,[18],2.40
Cc1ccc2c(c1)C(=O)C(=O)N2C(=O)CCl,inhibition,[4],71.2%
Nc1ccccc1[N+](=O)[O-] [2-NITROANILINE],pIC50,[19],4.07
C=C1CCC[C@H]2[C@](C)(CC3=C(O)C(=O)C=C(O)C3=O)[C@@H](C)CC[C@]12C,TIME,[6],2.5 h
O=C1Cn2nncc2CNC(=O)C(=O)c2ccccc2NC(=O)Cn2nncc2CNC(=O)C(=O)c2ccccc2N1,inhibition,[8],73.5%
CCOC(=O)/C=C1\CC(NCc2ccc(C)cc2)C(=O)N1Cc1ccc(C)cc1 (stereo unspecified),pIC50,[20],4.30
